Values joined by “and” are separate entries in the source; they are usually repeats but may differ in a detail not shown here. Equal values may be shown once. Where a name gives a salt, the structure may show the parent alone. Read-outs that look alike come from different tables or passages of the source.
Columns and labels:
[1] = tested on: mucin immobilized to IAM.PC.DD2; experiment: HPLC on MIC column (2:1 mucin to PC IAM particles): retention time, k′MIC, derived Km and Peff MIC; conditions: for k′MIC / Retention Time: MIC column 2:1 mucin:IAM, MPS pH 7.4; for Retention Time: isocratic 0.3 ml/min; for Dm: membrane diffusion coefficient calculated from molecular weight; for K′MIC: Table 5
Procedure: [formula] where Dm is the membrane diffusion coefficient of the solute, Km is the membrane equilibrium constant, and L is the membrane thickness (Stein, W., Transport and Diffusion Across Cell Membranes, Academic Press, Orlando, Fla. (1986)). […] Since molecular weight, MW, is proportional to molecular size, Dm may also written as,
[formula] Thus, Dm can be calculated from the molecular weight. Furthermore, Km is calculated by the following equation, Km−(Vm/Vs)k′, [4] where Vm is the volume of the mobile phase, Vs is the internal volume of the stationary phase, and k′ is the partition ratio (Pidgeon and Ong, Chemtech. June, 38-48 (1995)). The partition ratio is determined by the equation, k′−(tr−to)/to, [5] where tr is the retention time of the drug and to is the void volume of the column. Both tr and to can be experimentally determined in order to obtain k′.
Equation 2 can be used to determine Km for a given MIC medium. Both Dm and L are known from the discussion above, and Peff can be calculated for various drugs having known in vivo absorption. For example, a number of drug permeability coefficients, Peff, derived from in vivo experiments are listed in literature. […] See Example 5 below.

[2] = tested on: mucin immobilized to PC IAM particles; experiment: pH and mucin layer thickness dependence of partition ratio on MIC columns (1:2 and 2:1); conditions: for (1:2) k′ (pH 3) / (1:2) k′ (pH 5) / (1:2) k′ (pH 7): column 1:2 mucin to PC IAM, 0.32 μm mucin layer; for (1:2) k′ (pH 3) / (2:1) k′ (pH 3): mobile phase pH 3; for (1:2) k′ (pH 5) / (2:1) k′ (pH 5): mobile phase pH 5; for (1:2) k′ (pH 7) / (2:1) k′ (pH 7): mobile phase pH 7; for (2:1) k′ (pH 3) / (2:1) k′ (pH 5) / (2:1) k′ (pH 7): column 2:1 mucin to PC IAM, 0.36 μm mucin layer
[3] = cited from earlier work
[4] = single-pass perfusions, cited from earlier work

| Compound | k′MIC [1] | Retention Time [1] | Dm [1] | (1:2) k′ (pH 3) [2] | (1:2) k′ (pH 5) [2] | (1:2) k′ (pH 7) [2] | (2:1) k′ (pH 3) [2] | (2:1) k′ (pH 5) [2] | (2:1) k′ (pH 7) [2] | K′MIC ([1]; MIC 2:1) | k′MIC (1:2) ([2]; column 1:2, 0.32 μm, pH 7, Table 9) | k′MIC (2:1) ([2]; column 2:1, 0.36 μm, pH 7, Table 9) | % Absorbed ([3]; Table 5) | % Absorbed ([3]; Table 6) | Peff Loc-I-Gut (×10^−4 cm/s) ([4]; Table 5) | Peff Loc-I-Gut (×10^−4 cm/s) ([4]; Table 6) | Peff Loc-I-Gut (×10^−4 cm/s) ([4]; Table 9) | δ = log k′MIC − log k′IAM [1] | log k′MIC ([1]; MIC 2:1) |
| --- | --- | --- | --- | --- | --- | --- | --- | --- | --- | --- | --- | --- | --- | --- | --- | --- | --- | --- | --- |
| Nc1nc2c(ncn2COCCO)c(=O)[nH]1 [Acyclovir] | 33.5714 | 2.4 | 0.0044 | 25.67 | 15.67 | 25.67 | 20.43 | 20.43 | 24.00 | – | – | – | – | – | – | – | – | – | – |
| C=CCc1ccccc1OCC(O)CNC(C)C (stereo not drawn) [Alprenolol] | 46.1429 | 3.3 | 0.0035 | 54.00 | 64.00 | 42.33 | 43.29 | 49.00 | 82.33 | – | – | – | – | – | – | – | – | – | – |
| Cn1c(=O)c2c(ncn2C)n(C)c1=O [Caffeine] | 37.5714 | 2.7 | 0.0051 | 44.00 | 44.00 | 45.67 | 34.71 | 34.71 | 39.00 | – | – | – | – | – | – | – | – | – | – |
| CN/C(=N/CCSCc1nc[nH]c1C)NC#N [Cimetidine] | – | – | 0.0039 and 0.0040 | 25.67 | 29.00 | 44.00 | 17.57 | 23.29 | 35.67 | – | – | – | – | – | – | – | – | – | – |
| CC(C)Cc1ccc(C(C)C(=O)O)cc1 (stereo not drawn) [Ibuprofen] | 53.2857 | 3.8 | 0.0044 | – | – | – | – | – | – | – | – | – | – | – | – | – | – | – | – |
| CC(C(=O)O)c1cccc(C(=O)c2ccccc2)c1 (stereo not drawn) [Ketoprofen] | 52.5714 | 3.8 | 0.0039 | 25.67 | 29.00 | 82.33 | 20.43 | 27.57 | 70.67 | 52 | 82.3 | 70.7 | – | – | – | – | – | – | – |
| CC(CCc1ccccc1)NCC(O)c1ccc(O)c(C(N)=O)c1 (stereo not drawn) [Labetalol] | 53.2857 | 3.8 | 0.0027 | 24.00 | 24.00 | 32.33 | 79.00 | 90.43 | 132.33 | – | – | – | – | – | – | – | – | – | – |
| OC[C@@H](O)[C@@H](O)[C@H](O)[C@H](O)CO [Mannitol] | 33.4286 | 2.4 | 0.0055 | – | – | – | – | – | – | – | – | – | – | – | – | – | – | – | – |
| COc1ccc2cc([C@H](C)C(=O)O)ccc2c1 [Naproxen] | – | – | – | – | – | – | – | – | – | – | – | – | 100% | 100% | 8.0 ×10^−4 cm/s | 8.0 ×10^−4 cm/s | 8.0 ×10^−4 cm/s | – | – |
| CC(COc1ccccc1)N(CCCl)Cc1ccccc1 (stereo not drawn) [Phenoxybenzamine HCl] | – | – | – | 20.67 | 29.00 | 29.00 | 20.43 | 17.57 | 15.67 | – | – | – | – | – | – | – | – | – | – |
| CC(C)(C)NC[C@H](O)COc1nsnc1N1CCOCC1 [Timolol] | 36.1429 | 2.6 | 0.0023 | – | – | – | – | – | – | – | – | – | – | – | – | – | – | – | – |
| COc1ccc(CCN(C)CCCC(C#N)(c2ccc(OC)c(OC)c2)C(C)C)cc1OC (stereo not drawn) [Verapamil] | 71.8571 | 5.1 | 0.0020 | – | – | – | – | – | – | 71.86 | – | – | – | – | – | – | – | – | – |
| CC(=O)CC(c1ccccc1)c1c(O)c2ccccc2oc1=O (stereo not drawn) [Warfarin] | 54.7143 | 3.9 | 0.0032 | 25.67 | 30.67 | 39.00 | 21.86 | 24.71 | 19.00 | – | – | – | – | – | – | – | – | 0.59 | 1.74 |
| CC(=O)Nc1ccc(O)cc1 [acetaminophen] | 38.2857 | 2.8 | 0.0066 | 64.00 | 65.67 | 64.00 | 50.43 | 51.86 | 62.33 | – | – | – | – | – | – | – | – | – | – |
| CC(=O)Oc1ccccc1C(=O)O [acetyl salicylic acid] | 38.5714 | 2.8 | 0.0055 | 34.00 | 40.67 | 22.33 | 30.43 | 24.71 | 20.67 | – | – | – | – | – | – | – | – | – | – |
| CN(Cc1cnc2nc(N)nc(N)c2n1)c1ccc(C(=O)N[C@@H](CCC(=O)O)C(=O)O)cc1 [amethopterin] | – | – | – | 10.67 | 29.00 | 12.33 | none | 13.29 | 57.33 | – | – | – | – | – | – | – | – | – | – |
| COc1ccc(Cl)cc1C(=O)NCCc1ccc(S(=O)(=O)NC(=O)NC2CCCCC2)cc1 [glybenclamide] | – | – | – | none | 30.67 | 30.67 | none | 19.00 | 34.00 | – | – | – | – | – | – | – | – | – | – |
| NCC(=O)O [glycine] | – | – | – | none | none | none | none | none | none | – | – | – | – | – | – | – | – | – | – |
| O=C(CCCN1CCC(O)(c2ccc(Cl)cc2)CC1)c1ccc(F)cc1 [haloperidol] | – | – | – | 30.67 | 44.00 | 110.67 | 23.29 | 34.71 | 95.67 | – | – | – | – | – | – | – | – | – | – |
| CC(C)C[C@H](N)C(=O)O [leucine] | – | – | – | none | none | none | none | none | none | – | – | – | – | – | – | – | – | – | – |
| C=C[C@H]1C[N@@]2CC[C@H]1C[C@@H]2[C@@H](O)c1ccnc2ccc(OC)cc12 [quinidine, HCl] | 70.4286 | 5.0 | 0.0026 | – | – | – | – | – | – | – | – | – | – | – | – | – | – | – | – |
| O=C(O)c1cc(/N=N/c2ccc(S(=O)(=O)Nc3ccccn3)cc2)ccc1O [sulfasalazine] | 71.8571 | 5.1 | 0.0025 | 87.33 | 85.67 | 24.00 | 70.43 | 67.57 | 22.33 | – | – | – | – | – | – | – | – | – | – |
